Among the data in ChEMBL document CHEMBL6134889, “ByeTAC: Bypassing E-Ligase-Targeting Chimeras for Direct Proteasome Degradation” (J Med Chem, 2025) are Activity, DC50 and IC50 values, retold here.

Activity calls are given as the source filed them. The calls are words filed in the database; no cut-off is given here.

The target of assay [1] is T1, Proteasomal ubiquitin receptor ADRM1/Bromodomain-containing protein 4 (Homo sapiens, UniProt O60885+Q16186). The experiment in a line: BYETAC activity at 26S proteasome subunit Rpn13/BRD4 in human U87 cells assessed as induction of BRD4 degradation by measuring remaining activity at 100 nM incubated for 18 hrs by Western blot analysis (reference value: 100 %). In kind it is cell-based.

The target of assay [2] is T1, Proteasomal ubiquitin receptor ADRM1/Bromodomain-containing protein 4. Description: BYETAC activity at 26S proteasome subunit Rpn13/BRD4 in human Raji cells assessed as induction of BRD4 degradation by measuring remaining activity at 10 nM incubated for 18 hrs by Western blot analysis (reference value: 100 %). In kind it is cell-based.
For assay [3] the target is unchanged. The experiment in a line: BYETAC activity at 26S proteasome subunit Rpn13/BRD4 in human Ramos cells assessed as induction of BRD4 degradation incubated for 18 hrs by Western blot analysis. The format is cell-based.
Assay [4] shares this target. The experiment in a line: BYETAC activity at 26S proteasome subunit Rpn13/BRD4 in human Ramos cells assessed as induction of BRD4 degradation by measuring remaining activity at 10 nM incubated for 18 hrs by Western blot analysis (reference value: 100 %). In kind it is cell-based.
For assay [5] the target is unchanged. Description: BYETAC activity at 26S proteasome subunit Rpn13/BRD4 in human Raji cells assessed as induction of BRD4 degradation by measuring remaining activity at 100 nM incubated for 18 hrs by Western blot analysis (reference value: 100 %). In kind it is cell-based.
Assay [6] has the same target. The experiment in a line: BYETAC activity at 26S proteasome subunit Rpn13/BRD4 in human Ramos cells assessed as induction of BRD4 degradation by measuring remaining activity at 500 nM incubated for 18 hrs by Western blot analysis (reference value: 100 %). In kind it is cell-based.
The target is the same in assay [7]. The experiment in a line: BYETAC activity at 26S proteasome subunit Rpn13/BRD4 in human Ramos cells assessed as induction of BRD4 degradation by measuring remaining activity at 100 nM incubated for 18 hrs by Western blot analysis (reference value: 100 %). The format is cell-based.
For assay [8] the target is unchanged. The experiment in a line: BYETAC activity at 26S proteasome subunit Rpn13/BRD4 in human U87 cells assessed as induction of BRD4 degradation by measuring remaining activity at 500 nM incubated for 18 hrs by Western blot analysis (reference value: 100 %). In kind it is cell-based.
For assay [9] the target is unchanged. Description: BYETAC activity at 26S proteasome subunit Rpn13/BRD4 in human U87 cells assessed as induction of BRD4 degradation by measuring remaining activity at 10 nM incubated for 18 hrs by Western blot analysis (reference value: 100 %). In kind it is cell-based.
The target is the same in assay [10]. The experiment in a line: BYETAC activity at 26S proteasome subunit Rpn13/BRD4 in human Raji cells assessed as induction of BRD4 degradation by measuring remaining activity at 500 nM incubated for 18 hrs by Western blot analysis (reference value: 100 %). The format is cell-based.
Assay [11] deals with T2, Proteasomal ubiquitin receptor ADRM1/Tyrosine-protein kinase BTK (Homo sapiens) (UniProt Q06187+Q16186). Description: BYETAC activity at 26S proteasome subunit Rpn13/BTK in human Ramos cells assessed as induction of BTK degradation by measuring remaining activity at 10 uM incubated for 18 hrs by Western blot analysis (reference value: 100 %). The format is cell-based.
In assay [12] the target is T2, Proteasomal ubiquitin receptor ADRM1/Tyrosine-protein kinase BTK (Homo sapiens). Description: BYETAC activity at 26S proteasome subunit Rpn13/BTK in human Ramos cells assessed as induction of BTK degradation by measuring remaining activity at 1 uM incubated for 18 hrs by Western blot analysis (reference value: 100 %). In kind it is cell-based.
For assay [13] the target is unchanged. Description: BYETAC activity at 26S proteasome subunit Rpn13/BTK in human Ramos cells assessed as induction of BTK degradation by measuring remaining activity at 25 uM incubated for 18 hrs by Western blot analysis (reference value: 100 %). In kind it is cell-based.
The target is the same in assay [14]. Description: BYETAC activity at 26S proteasome subunit Rpn13/BTK in human Ramos cells assessed as induction of BTK degradation by measuring remaining activity at 0.5 uM incubated for 18 hrs by Western blot analysis (reference value: 100 %). The format is cell-based.
Assay [15] addresses Proteasomal ubiquitin receptor ADRM1/Glycogen synthase kinase-3 beta (Homo sapiens) (UniProt P49841+Q16186). Description: Halo-BYETAC activity at 26S proteasome subunit Rpn13/Halo-tagged GSK3beta (unknown origin) transfected in human U87 cells assessed as induction of Halo-tagged GSK3beta degradation at 1 to 10 uM incubated for 18 hrs by Western blot analysis. In kind it is cell-based. The settings on record: dose 1-10 µM.

In a further assay the test system is Ramos. The experiment in a line: Antiproliferative activity against human Ramos cells assessed as reduction in cell viability incubated for 48 hrs. The format is functional, cell-based.
Assay [16] deals with T2, Proteasomal ubiquitin receptor ADRM1/Tyrosine-protein kinase BTK (Homo sapiens). Description: BYETAC activity at 26S proteasome subunit Rpn13/BTK in human Ramos cells assessed as induction of BTK degradation at 1 to 25 uM incubated for 18 hrs by Western blot analysis. In kind it is cell-based. The settings on record: dose 1-25 µM.
In assay [17] the target is T1, Proteasomal ubiquitin receptor ADRM1/Bromodomain-containing protein 4. Description: BYETAC activity at 26S proteasome subunit Rpn13/BRD4 in human Ramos cells assessed as induction of BRD4 degradation at 500 nM preincubated with JQ1 for 1 hrs followed by compound addition and measured after 18 hrs by competitive Western blot analysis. The format is cell-based.
Assay [18] shares this target. Description: Induction of BRD4 degradation in human U87 cells transfected with Rpn-13 siRNA at 100 nM incubated for 18 hrs by Western blot analysis. The format is cell-based.
Assay [19] has the same target. The experiment in a line: BYETAC activity at 26S proteasome subunit Rpn13/BRD4 in human Ramos cells assessed as induction of BRD4 degradation at 500 nM preincubated with TCL1 for 1 hrs followed by compound addition and measured after 18 hrs by competitive Western blot analysis. The format is cell-based.
For assay [20], the target named is Proteasomal ubiquitin receptor ADRM1 (Homo sapiens) (UniProt Q16186). The experiment in a line: Induction of Rpn-13 stabilization in human Ramos cells assessed as increase in Rpn-13 level at 5 uM incubated for 3 hrs by co-immunoprecipitation analysis. In kind it is cell-based.
Assay [21] deals with T1, Proteasomal ubiquitin receptor ADRM1/Bromodomain-containing protein 4. Description: BYETAC activity at 26S proteasome subunit Rpn13/BRD4 in human Ramos cells assessed as induction of BRD4 degradation at 100 nM incubated for 18 hrs in presence of MG132 by Western blot analysis. The format is cell-based.
In assay [22] the target is Proteasomal ubiquitin receptor ADRM1/Bromodomain-containing protein 2 (Homo sapiens) (UniProt P25440+Q16186). The experiment in a line: BYETAC activity at 26S proteasome subunit Rpn13/BRD2 in human Ramos cells assessed as induction of BRD2 degradation at 100 nM incubated for 18 hrs by Western blot analysis. The format is cell-based.
Assay [23] has as its target T1, Proteasomal ubiquitin receptor ADRM1/Bromodomain-containing protein 4. The experiment in a line: BYETAC activity at 26S proteasome subunit Rpn13/BRD4 in human U87 cells assessed as induction of BRD4 degradation at 500 nM measured up to 72 hrs by Western blot analysis. The format is cell-based.
For assay [24] the target is unchanged. The experiment in a line: BYETAC activity at 26S proteasome subunit Rpn13/BRD4 in human Ramos cells assessed as induction of BRD4 degradation by measuring remaining activity at 100 nM incubated for 18 hrs in presence of TAK-243 by Western blot analysis relative to control. In kind it is cell-based.
Assay [25] has as its target Proteasomal ubiquitin receptor ADRM1/Bromodomain-containing protein 3 (Homo sapiens) (UniProt Q15059+Q16186). The experiment in a line: BYETAC activity at 26S proteasome subunit Rpn13/BRD3 in human Ramos cells assessed as induction of BRD3 degradation at 100 nM incubated for 18 hrs by Western blot analysis. In kind it is cell-based.
The target in assay [26] is T1, Proteasomal ubiquitin receptor ADRM1/Bromodomain-containing protein 4. Description: Binding affinity to 26S proteasome subunit Rpn13/BRD4 in human Ramos cells assessed as ternary complex formation at 5 uM incubated for 3 hrs by co-immunoprecipitation analysis. In kind it is cell-based.
For assay [27] the target is unchanged. Description: Induction of BRD4 degradation in human Ramos cells at 10 to 1000 nM incubated for 18 hrs by Western blot analysis. In kind it is cell-based. The conditions noted are these: dose 10-1000 nM.

Consider `Cc1sc2c(c1C)C(c1ccc(Cl)cc1)=N[C@@H](CC(=O)NCCOCCOCCOCCNC(=O)CC1Sc3nnc(Cc4ccc(Br)cc4)n3N=C1c1ccc(Cl)cc1)c1nnc(C)n1-2` (stereo not given in full), for which the Activity was 53% in assay [1]; 78% in assay [2]; 111% in [4]; 77% in [5]; 35% in assay [6]; 69% in [7]. In addition, the Activity in assay [8] came out at 36%; in assay [9], 83%; in [10], 68%. Further, the DC50 in [3] was approximately 500 nM.

Consider `Nc1ncnc2c1c(-c1ccc(Oc3ccccc3)cc1)nn2[C@H]1CCCN(C(=O)CCC(=O)NCCOCCOCCOCCOCCOCCOCCOCCOCCNC(=O)CC2Sc3nnc(Cc4ccc(Br)cc4)n3N=C2c2ccc(Cl)cc2)C1` (stereo not given in full), for which the Activity was 3% in assay [11], 72% in [12], 6% in [13] and 97% in assay [14].

Take `ClCCCCCCNCCOCCOCCNCC1Sc2nnc(Cc3ccc(Br)cc3)n2N=C1c1ccc(Cl)cc1` (stereo not given): in [15], the result was Active.

As for `Cc1sc2c(c1C)C(c1ccc(Cl)cc1)=N[C@@H](CC(=O)Nc1ccc(OCCOCCOCCOCCNc3cccc4c3C(=O)N(C3CCC(=O)NC3=O)C4=O)cc1)c1nnc(C)n1-2` (stereo not given in full), in the assay with Ramos, the IC50 amounted to 1.9 nM.

Take `Nc1ncnc2c1c(-c1ccc(Oc3ccccc3)cc1)nn2[C@H]1CCCN(C(=O)COCCOCCOCCOCCNC(=O)CC2Sc3nnc(Cc4ccc(Br)cc4)n3N=C2c2ccc(Cl)cc2)C1` (stereo not given in full): the result in [16] was inactive.

As for `Cc1sc2c(c1C)C(c1ccc(Cl)cc1)=N[C@@H](CC(=O)NCCOCCOCCOCCOCCOCCNC(=O)CC1Sc3nnc(Cc4ccc(Br)cc4)n3N=C1c1ccc(Cl)cc1)c1nnc(C)n1-2` (stereo not given in full), the Activity in assay [4] was 92%; in [6] it was 60%; in [7] it was 87%.

Take `Cc1sc2c(c1C)C(c1ccc(Cl)cc1)=N[C@@H](CC(=O)NCCOCCOCCOCCOCCNC(=O)CC1Sc3nnc(Cc4ccc(Br)cc4)n3N=C1c1ccc(Cl)cc1)c1nnc(C)n1-2` (stereo not given in full): the Activity in [1] was found to be 36%; in assay [2], 95%; in assay [4], 91%; in [24] it was 40%; in [5] it was 72%; in assay [6] it was 33%. Also, the Activity in assay [7] is 55%; in [8], 20%; in assay [9], 66%; in [10], 62%. In addition, the outcome in [17], in assay [18], in [19] and in [21] was inactive. Further, in the assay with Ramos, the IC50 was found to be 30.5 nM. Further, the outcome in [20], in [22], in assay [23], in assay [25] and in [26] was Active. Further, in [3], the DC50 was approximately 500 nM.

Consider `Cc1sc2c(c1C)C(c1ccc(Cl)cc1)=N[C@@H](CC(=O)NCCOCCOCCOCCOCCOCCOCCOCCNC(=O)CC1Sc3nnc(Cc4ccc(Br)cc4)n3N=C1c1ccc(Cl)cc1)c1nnc(C)n1-2` (stereo not given in full), for which the Activity worked out at 107% in assay [4], 80% in [6] and 100% in assay [7].

For the molecule `O=C(O)CC1Sc2nnc(Cc3ccc(Br)cc3)n2N=C1c1ccc(Cl)cc1` (stereo not given), the result in assay [27] was inactive.
